Reference: PMC6826616, “Topical 2′-Hydroxyflavanone for Cutaneous Melanoma” (Cancers, 2019)
Where two headings read alike, the source gives them in different places.

Assays:
B16-F0 cells = test: Western blot densitometry of whole-cell lysates, B16-F0; format: cell-based, mouse; conditions: 48 h
Method: (§1) B16-F0, F16-F10, and SK-MEL-24 cells were treated for 24 h with vehicle, 50 µM, and 100 µM 2HF. Cells were harvested and lysates prepared for Western blot using a radioimmunoprecipitation assay (RIPA) buffer with a protease (complete ULTRA) and phosphatase inhibitor (PhosSTOP) cocktail (Sigma-Aldrich, St. Louis, MO, USA). Total cell lysates (25 µg/lane) were loaded on 4–12% bis-tris gels, with MES gel running buffer. Proteins were transferred to nitrocellulose membrane, and nonspecific binding was minimized with 1× clear milk blocking buffer +0.1%TWEEN 20 (ThermoFisher Scientific, Waltham, MA, USA) for 1 h at room temperature. All primary antibodies were purchased from Santa Cruz Biotechnology except mouse monoclonal, TNF-α (Invitrogen), (1:1000), in 1× clear milk +0.1% TWEEN 20 overnight at 4 °C. Secondary antibody from Santa Cruz Biotech (1:2000) was incubated for 1 h at room temperature in 1× clear milk, 0.1% TWEEN 20.
(§2) Supplemental data for Fig. 2C. Caspase 9
(§3) Numbers below of each blot represent protein 1.0 1.2 0.5 ND ND ND ND ND ND band intensity ratios to adequate controls after Procaspase 3 […]
(§4) RAL BP- 1 and apoptosis enzymes in SK-Mel-24, B16F0 17kD Active caspase 3 […]
(§5) 48h. Cells were plated in complete growth medium. After overnight, cells were treated with different doses of 2HF, and PARP-1 incubated for 48h. Total cell lysates (40 µg/lane) were […]
(§6) buffer. Proteins were transferred to nitrocellulose C-terminal cleaved membrane, nonspecific binding was done in 1X clear milk, PARP~89kDa
(§7) +0.1%T20 (Invitrogen) for 1h at room temperature. All primary antibodies were from (mouse monoclonal, 1.0 0.8 0.9 1.0 0.9 ND 1.0 1.1 ND Santacruze Biotechnology (1:1000), in 1X clear milk
(§8) +0.1%T20 overnight in 40C. Secondary antibody from N-terminal cleaved
(§9) Santacruze Biotech (1:2000) for 1h at room temperature in PARP~24kDa […]
(§10) Supplemental Figure 7 Supplemental data for Fig. 5.
(§11) B16F0 SK-Mel- 24 B16F10Numbers below of each blot represent protein band intensity ratios to adequate
(§12) TNF-α Full blots are presented in next 4 figures. […]
(§13) cells after treatment with 50, 100 µM 2HF for 48h.
(§14) Raf-1 Raf-1 Cells were plated in complete growth medium. After overnight, cells were treated with different doses of 2HF, […]
(§15) loaded on 4- 12% bis-tris gel, with 1X MES gel running p-MEK-1 p-MEK-1 buffer. Proteins were transferred to nitrocellulose membrane, nonspecific binding was done in 1X clear
(§16) All primary antibodies were from (mouse monoclonal, MEKK15 MEKK15 except TNF-α (American Hamster), Santacruze
(§17) 1.0 0.9 0.1 ND ND ND overnight in 40C. Secondary antibody from Santacruze Biotech (1:2000) for 1h at room temperature in 1X clear […]

SK-MEL-24 cells = test: MTT cytotoxicity assay, SK-MEL-24; format: cell-based; conditions: Homo sapiens
From the text: We studied the growth-inhibitory effects of 2HF on the B16-F0 and B16-F10 murine melanoma cell lines as well as on the SK-MEL-24 human melanoma cell line. B16-F10 and SK-MEL-24 have been shown in previous studies to be highly resistant to treatment and much more invasive than B16-F0 [32]. […] The absorption value measured upon reduction of the MTT dye by functional mitochondria is an indirect measure of cell number that cannot distinguish inhibited cell proliferation from apoptotic or necrotic cell death. By counting viable (trypan-blue dye-excluding) cells using a hemacytometer, we verified that 2HF did indeed cause cell death.
Figure 1 Mouse and human melanoma cell survival following 2′-hydroxyflavanone (2HF) treatment.
The IC50 of 2HF on B16-F0, B16-F10, and SK-MEL-24 cells was determined by MTT cytotoxicity assay. Cells were harvested and Trypan Blue dye exclusion test was used to determine the number of viable cells present in a cell suspension using a hemocytometer. The cell suspension was diluted to 5 × 10^4 cells/mL with Dulbecco’s Modified Eagle’s Medium (DMEM) complete medium and 5000 cells/well were plated in 96-well plates. After 24 h incubation at 37 °C, cells were treated with 2HF concentrations ranging from 0–200 µM (8 replicates per plate). After 48 or 72 h incubation, 40 µL of MTT (5 mg/mL) solution was added. After 4 h incubation, the plate was centrifuged at 700× g for 5 min and medium was aspirated completely. Then, 50 µL DMSO was added to each well to dissolve the purple precipitate on the rocking platform for about 15 min. The absorbance was then measured at 490 nm using a 96-well microplate reader (Spectramax Plus, Molecular Devices, Inc, San Jose, CA, USA).

[1] = Blood counts and serum chemistry after topical 2HF; format: in vivo, B16-F0 melanoma-bearing C57B mice; conditions: topical 12 mg 2HF/0.1 mL PLO gel
Method: Blood samples were collected from representative mice from the control and 2HF-treated with 12 mg/0.1 mL PLO gel topically each day for 8 weeks just before euthanasia. These samples were used for hematologic, hepatic, renal, and metabolic profiling. A Hemavet instrument (Drew Scientific, Dallas, TX, USA) was used for determination of hematologic parameters.

B16-F10 cells = test: Western blot densitometry of whole-cell lysates, B16-F10; format: cell-based, mouse; conditions: 48 h
Method: as §1, with “B16-F0, F16-F10, and SK-MEL-24 cells were treated for 24 h with vehicle, 50 µM, and 100 µM 2HF.” left out, “Total cell lysates (25 µg/lane) were loaded on 4–12% bis-tris gels, with MES gel running buffer.” left out
as §2, §3, §4, §5, §6, §7, §8, §9, §10, §11, §12, §13, §14, §15, §16, §17

O=C1CC(c2ccccc2O)Oc2ccccc21 (stereo not drawn) [2HF, 2′-hydroxyflavanone]
Active caspase 3 band intensity ratio to control (normalized against β-Actin) (B16-F0 cells; B16F0, 50 µM 2HF): 0.9
C-terminal cleaved PARP~89kDa band intensity ratio to control (normalized against β-Actin) (B16-F0 cells; B16F0, 50 µM 2HF): 0.9
MEKK15 band intensity ratio to control (normalized against β-Actin) (B16-F0 cells; B16F0, 50 µM 2HF): 1.0
N-terminal cleaved PARP~24kDa band intensity ratio to control (normalized against β-Actin) (B16-F0 cells; B16F0, 50 µM 2HF): 0.9
PARP-1 band intensity ratio to control (normalized against β-Actin) (B16-F0 cells; B16F0, 50 µM 2HF): 0.9
PKC α band intensity ratio to control (normalized against β-Actin) (B16-F0 cells; B16F0, 50 µM 2HF): 0.6
Procaspase 3 band intensity ratio to control (normalized against β-Actin) (B16-F0 cells; B16F0, 50 µM 2HF): 1.0
RAL BP-1 band intensity ratio to control (normalized against β-Actin) (B16-F0 cells; B16F0, 50 µM 2HF): 0.9
Raf-1 band intensity ratio to control (normalized against β-Actin) (B16-F0 cells; B16F0, 50 µM 2HF): 0.2
TNF-α band intensity ratio to control (normalized against β-Actin) (B16-F0 cells; B16F0, 50 µM 2HF): 0.4
p-MEK-1 band intensity ratio to control (normalized against β-Actin) (B16-F0 cells; B16F0, 50 µM 2HF): 0.8
p-PDGFR-β band intensity ratio to control (normalized against β-Actin) (B16-F0 cells; B16F0, 50 µM 2HF): 0.3
Active caspase 3 band intensity ratio to control (normalized against β-Actin) (B16-F0 cells; B16F0, 100 µM 2HF): 0.1
MEKK15 band intensity ratio to control (normalized against β-Actin) (B16-F0 cells; B16F0, 100 µM 2HF): 4.7
N-terminal cleaved PARP~24kDa band intensity ratio to control (normalized against β-Actin) (B16-F0 cells; B16F0, 100 µM 2HF): 0.1
PARP-1 band intensity ratio to control (normalized against β-Actin) (B16-F0 cells; B16F0, 100 µM 2HF): 0.8
PKC α band intensity ratio to control (normalized against β-Actin) (B16-F0 cells; B16F0, 100 µM 2HF): 0.2
Procaspase 3 band intensity ratio to control (normalized against β-Actin) (B16-F0 cells; B16F0, 100 µM 2HF): 0.5
RAL BP-1 band intensity ratio to control (normalized against β-Actin) (B16-F0 cells; B16F0, 100 µM 2HF): 0.3
p-MEK-1 band intensity ratio to control (normalized against β-Actin) (B16-F0 cells; B16F0, 100 µM 2HF): 0.8
IC50 (SK-MEL-24 cells; MTT, 72 h, mean ±SD, n = 5, read-out: IC50 at 72 h (growth/survival)): 44 ± 6 µM
IC50 (SK-MEL-24 cells; Table 1, agent alone, read-out: IC50): 44.9 ± 1.67 µM
adverse effects on blood counts, renal function, or liver enzymes [1]: no adverse effects
Active caspase 3 band intensity ratio to control (normalized against β-Actin) (B16-F10 cells; B16F10, 50 µM 2HF): 1.0
C-terminal cleaved PARP~89kDa band intensity ratio to control (normalized against β-Actin) (B16-F10 cells; B16F10, 50 µM 2HF): 1.1
N-terminal cleaved PARP~24kDa band intensity ratio to control (normalized against β-Actin) (B16-F10 cells; B16F10, 50 µM 2HF): 1.1
PARP-1 band intensity ratio to control (normalized against β-Actin) (B16-F10 cells; B16F10, 50 µM 2HF): 1.0
Procaspase 3 band intensity ratio to control (normalized against β-Actin) (B16-F10 cells; B16F10, 50 µM 2HF): 0.9
RAL BP-1 band intensity ratio to control (normalized against β-Actin) (B16-F10 cells; B16F10, 50 µM 2HF): 0.5
Raf-1 band intensity ratio to control (normalized against β-Actin) (B16-F10 cells; B16F10, 50 µM 2HF): 0.5
PKC α band intensity ratio to control (normalized against β-Actin) (B16-F10 cells; B16F10, 100 µM 2HF): 0.2
Procaspase 3 band intensity ratio to control (normalized against β-Actin) (B16-F10 cells; B16F10, 100 µM 2HF): 0.1
TNF-α band intensity ratio to control (normalized against β-Actin) (B16-F10 cells; B16F10, 100 µM 2HF): 0.3
